Test: Reduction of body weight with harmine in mice (intraperitoneal injection, 4 weeks)
Type: in vivo
Conditions: intraperitoneal in saline, 4 weeks (30 days), initial body weight 30 g
Protocol: In order to determine the effect of harmine and harmine derivatives in reducing body weight, we administered harmine to mice and tracked their body weights for 4 weeks (30 days). Harmine was solublized in saline and administered via intraperitoneal injection. Animals were weighed weekly.
Mice (6 per group) were divided into seven groups and given one of the following treatments: • 1. 5 mg harmine/kg body weight (Low) • 2. 10 mg harmine/kg body weight (Med) • 3. 20 mg harmine/kg body weight (High) • 4. Saline • 5. 3 mg/kg body weight (Positive control 2) • 6. 5 mg/kg body weight (Positive control low) • 7. 10 mg/kg body weight (Positive control high)
Even at the low dose, the animals lost more than 5% of their body weight.

For `COc1ccc2c(c1)[nH]c1c(C)nccc12` [harmine], the “reduction in body weight” value (highest dose 20 mg harmine/kg body weight) was 6% and the “reduction in body weight” value (low dose 5 mg harmine/kg body weight) was “more than 5%”.
